Results taken from ChEMBL document CHEMBL1130170, “Orally active trifluoromethyl ketone inhibitors of human leukocyte elastase” (J Med Chem, 1997).
Where a SMILES comes first, the peptide text is derived from it. The star is where a group is joined. CF3 = FC(F)(F)*; Moc = COC(=O)*

Legend:
[1] = Oral integrated area under the concentration vs time curve, for compound in dog plasma; type: ADME, organism-based, Canis lupus familiaris
[2] = Oral integrated area under the concentration vs time curve, for compound in hamster plasma; type: ADME, organism-based; conditions: cricetinae
[3] = Oral integrated area under the concentration vs time curve, for compound in rat plasma; type: ADME, organism-based
[4] = Intravenous integrated area under the concentration vs time curve, for compound in dog plasma; type: ADME, organism-based, Canis lupus familiaris
[5] = Maximum concentration of the unchanged compound in dog plasma, recorded in the period 0-6 hr post dose.; type: ADME, organism-based, Canis lupus familiaris
[6] = Maximum concentration of the unchanged compound in hamster plasma, recorded in the period 0-6 hr post dose.; type: ADME, organism-based; conditions: cricetinae
[7] = Maximum concentration of the unchanged compound in rat plasma, recorded in the period 0-6 hr post dose.; type: ADME, organism-based
[8] = Bioavailability in hamster; type: ADME, organism-based, Cricetulus griseus; conditions: chinese hamster, in vivo
[9] = Bioavailability in rat; type: ADME, organism-based; conditions: in vivo
[10] = Time of maximum concentration of compound in hamster plasma.; type: ADME, organism-based; conditions: cricetinae
[11] = Time of maximum concentration of compound in rat plasma.; type: ADME, organism-based
[12] = Half-life of compound in plasma of dog; type: ADME, organism-based, Canis lupus familiaris
[13] = Half-life of compound in plasma of hamster; type: ADME, organism-based; conditions: cricetinae
[14] = Half-life of compound in plasma of rat; type: ADME, organism-based
Procathepsin L = Procathepsin L (Bos taurus, UniProt P25975); test: Binding affinity for bovine spleen cathepsin L; No inhibition at 188 uM (highest concentration tested)
Cricetinae gen. sp. [15] = test: Effective dose in the Acute Hemarrhagic Assay model after oral administration; type: functional, Cricetulus griseus
Cricetinae gen. sp. [16] = test: Percent inhibition of elastase-induced lung damage by 10 mg/kg dosed orally, 30 minutes prior to the instillation of 50 ug of elastase; type: functional, Cricetulus griseus
Kallikrein-1 = Kallikrein-1 (Homo sapiens, UniProt P06870); test: Binding affinity for human urine kallikrein; No inhibition at 188 uM (highest concentration tested)
Monoamine oxidase = molecular target: T1, Monoamine oxidase (Homo sapiens, UniProt P21397+P27338); test: Binding affinity for human plasma monoamine oxidase; No inhibition at 188 uM (highest concentration tested); type: cell-free
T1 sequence (P21397 whole entry): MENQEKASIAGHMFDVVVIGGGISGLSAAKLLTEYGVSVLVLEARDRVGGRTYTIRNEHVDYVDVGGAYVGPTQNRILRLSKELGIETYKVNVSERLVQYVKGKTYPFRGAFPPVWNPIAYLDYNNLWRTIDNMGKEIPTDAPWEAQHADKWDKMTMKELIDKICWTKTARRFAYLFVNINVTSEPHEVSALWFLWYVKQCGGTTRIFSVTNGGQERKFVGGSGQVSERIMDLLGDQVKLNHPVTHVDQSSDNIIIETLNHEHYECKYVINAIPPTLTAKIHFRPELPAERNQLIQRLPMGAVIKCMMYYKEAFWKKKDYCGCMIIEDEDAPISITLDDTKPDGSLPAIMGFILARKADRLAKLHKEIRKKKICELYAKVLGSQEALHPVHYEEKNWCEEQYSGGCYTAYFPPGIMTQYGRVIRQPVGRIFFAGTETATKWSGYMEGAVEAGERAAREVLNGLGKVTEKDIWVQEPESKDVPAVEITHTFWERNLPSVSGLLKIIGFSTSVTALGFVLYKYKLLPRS
T1 sequence (P27338 whole entry): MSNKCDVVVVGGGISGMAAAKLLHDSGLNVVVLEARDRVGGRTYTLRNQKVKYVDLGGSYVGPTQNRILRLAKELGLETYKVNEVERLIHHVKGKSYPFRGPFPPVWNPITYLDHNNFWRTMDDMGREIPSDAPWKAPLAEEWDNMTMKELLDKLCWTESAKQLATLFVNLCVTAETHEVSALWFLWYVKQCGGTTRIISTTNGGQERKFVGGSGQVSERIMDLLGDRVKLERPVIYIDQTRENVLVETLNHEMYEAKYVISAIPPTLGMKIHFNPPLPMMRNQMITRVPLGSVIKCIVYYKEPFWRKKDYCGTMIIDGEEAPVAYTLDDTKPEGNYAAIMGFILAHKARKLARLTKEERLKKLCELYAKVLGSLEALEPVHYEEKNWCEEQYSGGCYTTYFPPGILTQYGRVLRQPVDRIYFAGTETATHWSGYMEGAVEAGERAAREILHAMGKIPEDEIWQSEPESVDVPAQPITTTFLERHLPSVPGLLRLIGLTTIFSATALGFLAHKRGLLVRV

Papain = molecular target: T2, Papain (Carica papaya, UniProt P00784); test: Binding affinity for papaya papain; No inhibition at 188 uM (highest concentration tested)
T2 sequence (P00784 whole entry): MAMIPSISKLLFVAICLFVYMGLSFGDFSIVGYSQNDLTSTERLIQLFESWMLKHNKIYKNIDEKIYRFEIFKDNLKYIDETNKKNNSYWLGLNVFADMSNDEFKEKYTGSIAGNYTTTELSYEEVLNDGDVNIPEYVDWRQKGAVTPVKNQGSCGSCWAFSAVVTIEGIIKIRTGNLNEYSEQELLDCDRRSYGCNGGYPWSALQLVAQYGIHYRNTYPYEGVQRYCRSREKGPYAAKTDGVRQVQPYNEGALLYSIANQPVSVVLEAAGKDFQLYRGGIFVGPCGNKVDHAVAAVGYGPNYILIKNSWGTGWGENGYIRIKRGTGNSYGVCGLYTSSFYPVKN

Plasma kallikrein = Plasma kallikrein (Homo sapiens, UniProt P03952); test: Binding affinity for human plasma kallikrein; No inhibition at 188 uM (highest concentration tested); type: cell-free
[17] = Intravenous integrated area under the concentration vs time curve, for compound in rat plasma; type: ADME, organism-based
Prothrombin = Prothrombin (Homo sapiens, UniProt P00734); test: Binding affinity for human plasma thrombin; No inhibition at 188 uM (highest concentration tested); type: cell-free

Chain of Plasma kallikrein (P03952 20-390 limits assumed): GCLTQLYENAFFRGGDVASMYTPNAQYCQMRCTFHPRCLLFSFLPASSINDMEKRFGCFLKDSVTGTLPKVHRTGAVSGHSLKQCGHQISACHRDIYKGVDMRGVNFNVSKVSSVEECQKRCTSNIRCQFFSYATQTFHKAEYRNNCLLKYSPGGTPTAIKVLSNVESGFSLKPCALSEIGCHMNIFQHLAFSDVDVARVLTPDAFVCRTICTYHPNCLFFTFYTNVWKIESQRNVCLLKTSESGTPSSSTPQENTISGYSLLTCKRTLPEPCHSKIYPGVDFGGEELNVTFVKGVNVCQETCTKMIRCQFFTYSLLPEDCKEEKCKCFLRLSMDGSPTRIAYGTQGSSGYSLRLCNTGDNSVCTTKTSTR
Chain of Plasma kallikrein (P03952 391-638 limits assumed): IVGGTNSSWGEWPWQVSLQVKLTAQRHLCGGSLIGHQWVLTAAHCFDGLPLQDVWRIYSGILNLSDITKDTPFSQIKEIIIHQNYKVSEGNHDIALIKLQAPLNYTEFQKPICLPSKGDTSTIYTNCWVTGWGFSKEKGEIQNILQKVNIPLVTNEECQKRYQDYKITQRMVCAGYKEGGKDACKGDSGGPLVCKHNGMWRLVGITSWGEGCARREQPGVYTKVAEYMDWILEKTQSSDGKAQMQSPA
Chain of Kallikrein-1 (P06870 whole entry): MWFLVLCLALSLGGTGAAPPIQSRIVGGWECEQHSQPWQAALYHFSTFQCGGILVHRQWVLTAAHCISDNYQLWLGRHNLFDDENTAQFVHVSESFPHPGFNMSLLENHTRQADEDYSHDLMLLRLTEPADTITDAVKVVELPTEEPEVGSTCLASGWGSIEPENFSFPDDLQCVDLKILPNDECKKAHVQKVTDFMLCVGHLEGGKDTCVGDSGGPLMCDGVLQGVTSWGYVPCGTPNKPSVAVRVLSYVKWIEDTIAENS
Chain of Procathepsin L (P25975 whole entry): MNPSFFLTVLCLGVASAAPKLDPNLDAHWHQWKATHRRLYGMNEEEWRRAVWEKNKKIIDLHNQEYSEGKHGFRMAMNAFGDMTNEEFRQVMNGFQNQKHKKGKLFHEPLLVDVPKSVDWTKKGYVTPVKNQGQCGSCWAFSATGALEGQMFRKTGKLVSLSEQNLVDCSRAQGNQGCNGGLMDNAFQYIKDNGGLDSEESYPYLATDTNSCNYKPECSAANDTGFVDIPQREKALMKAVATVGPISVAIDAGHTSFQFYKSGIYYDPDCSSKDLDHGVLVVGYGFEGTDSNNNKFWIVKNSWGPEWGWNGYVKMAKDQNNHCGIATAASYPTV

| SMILES | AUC [1] [µg·h/mL] | AUC [2] [µg·h/mL] | AUC [3] [µg·h/mL] | AUC [4] [µg·h/mL] | Cmax [5] [µg/mL] | Cmax [6] [µg/mL] | Cmax [7] [µg/mL] | bioavailability [8] [%] | bioavailability [9] [%] | Tmax [10] [min] | Tmax [11] [min] | half-life [12] [min] | half-life [13] [min] | half-life [14] [min] | Ki (Procathepsin L) | ED50 (Cricetinae gen. sp. [15]) [mg/kg] | Ki (Kallikrein-1) | Ki (Monoamine oxidase) | Ki (Papain) | Ki (Plasma kallikrein) | also measured |
| --- | --- | --- | --- | --- | --- | --- | --- | --- | --- | --- | --- | --- | --- | --- | --- | --- | --- | --- | --- | --- | --- |
| COc1ccc(C(=O)N[C@H](C(=O)N2CCC[C@H]2C(=O)N[C@H](C(=O)C(F)(F)F)C(C)C)C(C)C)cc1 (stereo in doubt; 1k) | 1.25 | 0.355 | 1.4 | 3.18 | 0.382 | 0.373 | 0.972 | 26 | 82 | 30 | 15 | 120 | 72 | 49.2 | No inhibition | 4.9 | No inhibition | No inhibition | No inhibition | No inhibition | Inhibition (Cricetinae gen. sp. [16]; 10 mg/kg): 84%; AUC [17]: 1.7 µg·h/mL; Ki (Prothrombin): No inhibition |
| COC(=O)N[C@H](C(=O)N1CCC[C@H]1C(=O)N[C@H](C(=O)C(F)(F)F)C(C)C)C(C)C (Moc-Val-Pro-Val-CF3) | 6.54 | 2.16 | 5.48 | 9.37 | 5.44 | 1.46 | 3.69 | 75 | 84 | 15 | 30 | 48.6 | 120 | 78 | No inhibition | 2 | No inhibition | No inhibition | No inhibition | No inhibition | inhibition in vivo at 10 mg/kg (Cricetinae gen. sp. [16]; Cricetinae gen. sp., po): 92%; AUC [17]: 6.54 µg·h/mL; Ki (Prothrombin): No inhibition |
